For one compound, Survival results are on record in ChEMBL document CHEMBL1153524, “2009 Claude S. Hudson Award in Carbohydrate Chemistry. Carbohydrates: a frontier in medicinal chemistry” (2009).

For this assay, the system named is Plasmodium berghei. The experiment in a line: Antiplasmodial activity as survival against Plasmodium berghei ANKA infected mice (Mus musculus). The format is functional.

`NCCOP(=O)(O)OC[C@H]1O[C@H](O[C@@H]2[C@@H](OC[C@H]3O[C@H](O[C@H]4[C@H](O)[C@@H](N)[C@@H](O[C@@H]5[C@@H](O)[C@H](O)[C@@H](O)[C@H]6OP(=O)(O)O[C@H]65)O[C@@H]4CO)[C@@H](O)[C@@H](O)[C@@H]3O)O[C@H](CO)[C@@H](O)[C@@H]2O)[C@@H](O[C@H]2O[C@H](CO)[C@@H](O)[C@H](O)[C@@H]2O)[C@@H](O)[C@@H]1O`: the Survival is reported as 75%.
